Data published in ChEMBL document CHEMBL1629667, “Activities of dalbavancin against a worldwide collection of 81,673 gram-positive bacterial isolates” (2009).
In brackets after ≈: the same amount, converted by molar mass.

Key:
Type in all cases: functional
[1] = system: Enterococcus faecium; experiment: Antimicrobial activity against Vancomycin-nonsusceptible Enterococcus faecium assessed as percent resistant isolates by broth microdilution method
[2] = system: Enterococcus faecium; experiment: Antimicrobial activity against Vancomycin-nonsusceptible Enterococcus faecium assessed as percent susceptible isolate by broth microdilution method
[3] = system: Enterococcus faecium; experiment: Antimicrobial activity against Vancomycin-susceptible Enterococcus faecium by broth microdilution method
[4] = system: Enterococcus faecalis; experiment: Antimicrobial activity against Vancomycin-susceptible Enterococcus faecalis assessed as percent susceptible isolate by broth microdilution method
[5] = system: Enterococcus faecalis; experiment: Antimicrobial activity against Vancomycin-nonsusceptible Enterococcus faecalis assessed as percent susceptible isolate by broth microdilution method
[6] = system: Enterococcus faecium; experiment: Antimicrobial activity against Vancomycin-nonsusceptible Enterococcus faecium by broth microdilution method
[7] = system: Enterococcus faecalis; experiment: Antimicrobial activity against Vancomycin-susceptible Enterococcus faecalis assessed as percent resistant isolates by broth microdilution method
[8] = system: Enterococcus faecalis; experiment: Antimicrobial activity against Vancomycin-nonsusceptible Enterococcus faecalis by broth microdilution method
[9] = system: Enterococcus faecium; experiment: Antimicrobial activity against Vancomycin-susceptible Enterococcus faecium assessed as percent resistant isolates by broth microdilution method
[10] = system: Enterococcus faecium; experiment: Antimicrobial activity against Vancomycin-susceptible Enterococcus faecium assessed as percent susceptible isolate by broth microdilution method
[11] = system: Enterococcus faecalis; experiment: Antimicrobial activity against Vancomycin-susceptible Enterococcus faecalis by broth microdilution method
[12] = system: Enterococcus faecalis; experiment: Antimicrobial activity against Vancomycin-nonsusceptible Enterococcus faecalis assessed as percent resistant isolates by broth microdilution method
[13] = system: Streptococcus; experiment: Antimicrobial activity against viridans group Streptococcus assessed as percent resistant isolates by broth microdilution method
[14] = system: Streptococcus; experiment: Antimicrobial activity against viridans group Streptococcus by broth microdilution method
[15] = system: Streptococcus; experiment: Antimicrobial activity against Beta-hemolytic Streptococcus assessed as percent susceptible isolate by broth microdilution method
[16] = system: Streptococcus; experiment: Antimicrobial activity against Beta-hemolytic Streptococcus by broth microdilution method
[17] = system: Streptococcus; experiment: Antimicrobial activity against viridans group Streptococcus assessed as percent susceptible isolate by broth microdilution method
[18] = system: Staphylococcus; experiment: Antimicrobial activity against Oxacillin-susceptible coagulase-negative Staphylococcus assessed as percent resistant isolate by broth microdilution method
[19] = system: Staphylococcus; experiment: Antimicrobial activity against Oxacillin-susceptible coagulase-negative Staphylococcus assessed as percent susceptible isolate by broth microdilution method
[20] = system: Staphylococcus aureus; experiment: Antimicrobial activity against Oxacillin-susceptible Staphylococcus aureus assessed as percent susceptible isolate by broth microdilution method
[21] = system: Staphylococcus; experiment: Antimicrobial activity against Oxacillin-resistant coagulase-negative Staphylococcus by broth microdilution method
[22] = system: Staphylococcus aureus; experiment: Antimicrobial activity against Oxacillin-susceptible Staphylococcus aureus by broth microdilution method
[23] = system: Staphylococcus; experiment: Antimicrobial activity against Oxacillin-resistant coagulase-negative Staphylococcus assessed as percent resistant isolate by broth microdilution method
[24] = system: Staphylococcus; experiment: Antimicrobial activity against Oxacillin-resistant coagulase-negative Staphylococcus assessed as percent susceptible isolate by broth microdilution method
[25] = system: Staphylococcus aureus; experiment: Antimicrobial activity against Oxacillin-resistant Staphylococcus aureus assessed as percent susceptible isolate by broth microdilution method
[26] = system: Streptococcus; experiment: Antimicrobial activity against Beta-hemolytic Streptococcus assessed as percent resistant isolates by broth microdilution method
[27] = system: Staphylococcus aureus; experiment: Antimicrobial activity against Oxacillin-resistant Staphylococcus aureus by broth microdilution method
[28] = system: Staphylococcus aureus; experiment: Antimicrobial activity against Oxacillin-resistant Staphylococcus aureus assessed as percent resistant isolate by broth microdilution method
[29] = system: Staphylococcus; experiment: Antimicrobial activity against Oxacillin-susceptible coagulase-negative Staphylococcus by broth microdilution method
[30] = system: Staphylococcus aureus; experiment: Antimicrobial activity against Oxacillin-susceptible Staphylococcus aureus assessed as percent resistant isolates by broth microdilution method

Compound	Activity [2] [%]	MIC50 [3] [µg/mL]	MIC90 [3] [µg/mL]	Activity [4] [%]	Activity [5] [%]	MIC50 [6] [µg/mL]	MIC90 [6] [µg/mL]	MIC50 [8] [µg/mL]	MIC90 [8] [µg/mL]	Activity [10] [%]	MIC50 [11] [µg/mL]	MIC90 [11] [µg/mL]	MIC [14] [µg/mL]	MIC50 [14] [µg/mL]	MIC90 [14] [µg/mL]	Activity [15] [%]	MIC [16] [µg/mL]	MIC50 [16] [µg/mL]	MIC90 [16] [µg/mL]	Activity [17] [%]	further results
CC1(C)S[C@@H]2[C@H](NC(=O)[C@H](N)c3ccccc3)C(=O)N2[C@H]1C(=O)O [AMPICILLIN]	0.8	> 16	> 16	99.6	96	> 16	> 16	≤ 2	4 (≈ 11.4 µM)	15.6	≤ 2	≤ 2									Activity [1]: 99.2%; Activity [7]: 0.2%; MIC [8]: ≤ 2 µg/mL; Activity [9]: 84.4%; MIC [11]: ≤ 2 µg/mL; Activity [12]: 4%
CO/N=C(\C(=O)N[C@@H]1C(=O)N2C(C(=O)O)=C(CSc3nc(=O)c(O)nn3C)CS[C@H]12)c1csc(N)n1 [CEFTRIAXONE]													0.25 (≈ 0.451 µM)	0.25 (≈ 0.451 µM)	1 (≈ 1.8 µM)	99.9	0.25 (≈ 0.451 µM)	0.25 (≈ 0.451 µM)	0.25 (≈ 0.451 µM)	92.5	Activity [13]: 4.3%
O=C(O)c1cn(C2CC2)c2cc(N3CCNCC3)c(F)cc2c1=O [CIPROFLOXACIN]	0.7	> 4	> 4	62.2	3.7	> 4	> 4	> 4	> 4	8.1	1 (≈ 3.02 µM)	> 4									Activity [7]: 33.6%; Activity [9]: 83.7%; Activity [12]: 96.3%
CCC[C@@H]1C[C@@H](C(=O)N[C@@H]([C@H]2O[C@H](SC)[C@H](O)[C@@H](O)[C@H]2O)[C@H](C)Cl)N(C)C1 [CLINDAMYCIN]													0.25 (≈ 0.588 µM)	0.25 (≈ 0.588 µM)	0.5 (≈ 1.18 µM)	91.4	0.25 (≈ 0.588 µM)	0.25 (≈ 0.588 µM)	0.25 (≈ 0.588 µM)	89.8	Activity [18]: 5.7%; Activity [19]: 93.5%; Activity [20]: 95.8%; MIC90 [21]: > 2 µg/mL; Activity [13]: 9.5%; MIC [22]: ≤ 0.25 µg/mL; MIC50 [22]: ≤ 0.25 µg/mL; MIC90 [22]: ≤ 0.25 µg/mL; Activity [23]: 41.7%; Activity [24]: 57%; Activity [25]: 47.8%; Activity [26]: 19.9%; MIC50 [27]: > 2 µg/mL; MIC90 [27]: > 2 µg/mL; Activity [28]: 52.1%; MIC [29]: ≤ 0.25 µg/mL; MIC50 [29]: ≤ 0.25 µg/mL; MIC90 [29]: ≤ 0.25 µg/mL; Activity [30]: 4%
CN[C@H]1C(=O)N[C@@H]2Cc3ccc(cc3)Oc3cc4cc(c3O[C@@H]3O[C@H](C(=O)O)[C@@H](O)[C@H](O)[C@H]3NC(=O)CCCCCCCCC(C)C)Oc3ccc(cc3Cl)[C@@H](O)[C@@H]3NC(=O)[C@H](NC(=O)[C@@H]4NC(=O)[C@@H](NC2=O)c2cc(cc(O)c2Cl)Oc2cc1ccc2O)c1ccc(O)c(c1)-c1c(O[C@H]2O[C@H](CO)[C@@H](O)[C@H](O)[C@@H]2O)cc(O)cc1[C@@H](C(=O)NCCCN(C)C)NC3=O [DALBAVANCIN]	11.4	0.06 (≈ 0.033 µM)	0.12 (≈ 0.0661 µM)	>99.9	27.8	> 4	> 4	> 4	> 4	99.6	≤ 0.03	0.06 (≈ 0.033 µM)	0.03 (≈ 0.0165 µM)	0.03 (≈ 0.0165 µM)	0.03 (≈ 0.0165 µM)	100	0.03 (≈ 0.0165 µM)	0.03 (≈ 0.0165 µM)	0.03 (≈ 0.0165 µM)	100	Activity [19]: 99.8%; Activity [20]: 100%; MIC90 [21]: 0.12 µg/mL (≈ 0.0661 µM); MIC50 [22]: 0.06 µg/mL (≈ 0.033 µM); MIC90 [22]: 0.06 µg/mL (≈ 0.033 µM); Activity [24]: 99.2%; MIC50 [27]: 0.06 µg/mL (≈ 0.033 µM); MIC90 [27]: 0.06 µg/mL (≈ 0.033 µM); MIC [29]: ≤ 0.03 µg/mL; MIC50 [29]: ≤ 0.03 µg/mL; MIC90 [29]: 0.06 µg/mL (≈ 0.033 µM); MIC [11]: ≤ 0.03 µg/mL
